Assay results published in patent US20250152719A1, “FUSED IMIDE DERIVATIVE” (Chia Tai Tianqing Pharmaceutical Group Co., Ltd., priority 2021, published 2025).

What was measured:
EGFR kinase = EGFR kinase (Homo sapiens (Human), UniProt P00533); assay: Inhibitory activity on EGFR kinase; assay type: biochemical; conditions: ATP 5 μM
Procedure: (§1) The Assay Buffer was prepared, and the composition of the Assay Buffer was 50 mM Hepes (Gibco, 15630), 10 mM MgCl2, 2 mM DTT, 1 mM EGTA, and 0.010% Tween 20. EGFR kinase (Carna, 08-115), ATP (Sigma, A7699), and ULight-poly GT (PE, TRF0100-M) working solutions were prepared using the Assay Buffer. EDTA and Eu-labeled anti-phosphotyrosine (PT66) antibody (PE, AD0069) working solutions were prepared using the Detection Buffer. 6 μL of EGFR kinase at the corresponding concentration (final concentration: 0.006 ng/μL) was added to the compound groups and the control group, while 6 μL of the Assay Buffer was added to the blank group, and then the compounds (with the concentration set to 1000 nM at the maximum, 4-fold dilution, 7 concentration gradients) were added using a nanoliter pipettor. The mixture was incubated at room temperature for 30 min, and then 4 μL of the mixture of ATP (final concentration: 5 μM) and ULight-poly GT (final concentration: 100 nM) was added. After incubation at room temperature for 2 h, 5 μL of EDTA (final concentration: 10 mM) was added to stop the reaction, and finally 5 μL of antibody (final concentration: 2 nM) was added. After incubation at room temperature for 1 h, signal values were detected at 665/615 nM, the four-parameter analysis was performed, the dose-response curves were fit, and IC50 was calculated.

BTK = BTK (Homo sapiens (Human), UniProt Q06187); assay: BTK degradation in OCI-LY10 cells (Total-BTK HTRF kit); assay type: cell-based; conditions: OCI-Ly10, OCI-LY10 cells, 24 (or 6) h incubation; maximum degradation rate
Outline: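 OCI-LY10 cells seeded overnight, then treated with compound at 100 nM-0.098 nM in duplicate for 24 (or 6) h. Lysates probed by Total-BTK HTRF (d2/Eu cryptate antibodies, overnight, room temperature), read at 665/620 nm; DC50 and Dmax from four-parameter dose-response fits.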

BTK(WT) kinase = BTK(WT) kinase (Homo sapiens (Human), UniProt Q06187); assay: Inhibitory activity on BTK(WT) kinase; assay type: biochemical; conditions: ATP 10 μM
Procedure: The Assay Buffer was prepared, and the composition of the Assay Buffer was 50 mM Hepes (Gibco, 15630), 10 mM MgCl2, 2 mM DTT, 1 mM EGTA, and 0.010% Tween 20. BTK(WT) kinase (Life, PR5442A), ATP (Sigma, A7699), and ULight-poly GT (PE, TRF0100-M) working solutions were prepared using the Assay Buffer. EDTA and Eu-labeled anti-phosphotyrosine (PT66) antibody (PE, AD0069) working solutions were prepared using the Detection Buffer (PE, CR97-100). 6 μL of BTK(WT) kinase at the corresponding concentration (final concentration: 0.003 ng/L) was added to the compound groups and the control group, while 6 μL of the Assay Buffer was added to the blank group, and then the compounds (with the concentration set to 1000 nM at the maximum, 4-fold dilution, 7 concentration gradients) were each added using a nanoliter pipettor. The mixture was incubated at room temperature for 30 min, and then 4 μL of the mixture of ATP (final concentration: 10 μM) and ULight-poly GT (final concentration: 100 nM) was added. After incubation at room temperature for 2 h, 5 μL of EDTA (final concentration: 10 mM) was added to stop the reaction, and finally 5 μL of antibody (final concentration: 2 nM) was added. After incubation at room temperature for 1 h, signal values were detected at 665/615 nM, the four-parameter analysis was performed, the dose-response curves were fit, and IC50 was calculated.

BTK(C481S) kinase = BTK(C481S) kinase (Homo sapiens (Human), UniProt Q06187, C481S); assay: Inhibitory activity on BTK(C481S) kinase; assay type: biochemical; conditions: ATP 10 μM
Procedure: as §1, with “20. BTK(C481S)” for “20. EGFR”, “kinase (Carna Biosciences, 08-547),” for “kinase (Carna, 08-115),”, “of BTK(C481S)” for “of EGFR”, “concentration: 0.005” for “concentration: 0.006”, “concentration: 10” for “concentration: 5”

TMD8-BTK(C481S) cells = assay: Inhibitory activity on TMD8-BTK(C481S) cell proliferation (CCK-8); assay type: cell-based; conditions: 72 h, 72 h incubation
Outline: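 Cells seeded at 8×10^4 cells/mL, incubated overnight, then treated in duplicate with compounds at 5000 nM-0.31 nM for 72 h. Viability by CCK-8 (4 h, absorbance 450 nm); IC50 from four-parameter dose-response fits.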

[1] = In vitro liver microsomal stability, mouse; conditions: 0.5 mg/mL microsomes, NADPH, 37° C., 1 h
Procedure: Liver microsome incubation samples were prepared by mixing a PBS buffer (pH 7.4), a liver microsome solution (0.5 mg/mL), a test compound, and an NADPH+MgCl2 solution and incubated at 37° C. and 300 rpm for 1 h. Zero-hour samples were prepared by mixing a PBS buffer (pH 7.4), a liver microsome solution (0.5 mg/mL), and a test compound. An acetonitrile solution containing an internal standard was added to the samples, and supernatants were prepared by protein precipitation, diluted, and then assayed by LC/MS/MS.

Sequence of BTK (Q06187 whole entry): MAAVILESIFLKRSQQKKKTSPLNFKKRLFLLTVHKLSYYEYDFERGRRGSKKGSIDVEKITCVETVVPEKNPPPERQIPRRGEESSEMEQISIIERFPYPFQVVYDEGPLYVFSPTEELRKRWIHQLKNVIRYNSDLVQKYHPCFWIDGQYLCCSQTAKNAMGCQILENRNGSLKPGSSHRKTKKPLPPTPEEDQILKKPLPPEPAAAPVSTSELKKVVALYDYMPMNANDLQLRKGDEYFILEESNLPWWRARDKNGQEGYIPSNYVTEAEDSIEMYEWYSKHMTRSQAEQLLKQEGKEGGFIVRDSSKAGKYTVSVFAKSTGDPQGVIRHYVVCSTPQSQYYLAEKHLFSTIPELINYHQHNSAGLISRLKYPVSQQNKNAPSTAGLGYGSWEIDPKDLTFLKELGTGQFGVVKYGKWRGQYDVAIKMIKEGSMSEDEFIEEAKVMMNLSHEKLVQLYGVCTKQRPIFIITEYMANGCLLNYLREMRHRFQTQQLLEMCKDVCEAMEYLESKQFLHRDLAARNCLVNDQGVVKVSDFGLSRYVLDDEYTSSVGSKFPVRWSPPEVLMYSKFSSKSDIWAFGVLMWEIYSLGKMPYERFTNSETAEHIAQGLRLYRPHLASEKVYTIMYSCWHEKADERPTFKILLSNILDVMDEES
Sequence of BTK(WT) kinase (Q06187 whole entry): as above
Sequence of BTK(C481S) kinase (Q06187 whole entry C481S): as the sequence (Q06187 whole entry) above, with C481S counted along it
Sequence of EGFR kinase (P00533 669-1210): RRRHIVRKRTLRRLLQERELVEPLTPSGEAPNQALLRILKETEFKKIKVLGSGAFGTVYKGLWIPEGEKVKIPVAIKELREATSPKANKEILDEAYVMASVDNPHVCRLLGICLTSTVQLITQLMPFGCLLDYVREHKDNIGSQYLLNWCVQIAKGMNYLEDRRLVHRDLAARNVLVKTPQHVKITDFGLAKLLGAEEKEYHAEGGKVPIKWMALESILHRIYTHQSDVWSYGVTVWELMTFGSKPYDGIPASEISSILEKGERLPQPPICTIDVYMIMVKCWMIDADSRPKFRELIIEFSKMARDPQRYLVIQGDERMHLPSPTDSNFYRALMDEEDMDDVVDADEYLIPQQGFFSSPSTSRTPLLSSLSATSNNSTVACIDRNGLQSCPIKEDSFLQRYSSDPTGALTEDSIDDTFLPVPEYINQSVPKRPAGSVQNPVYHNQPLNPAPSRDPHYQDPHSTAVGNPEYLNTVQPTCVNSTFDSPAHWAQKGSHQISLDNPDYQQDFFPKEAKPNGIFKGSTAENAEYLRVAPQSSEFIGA

For `CN1CCN([C@@H]2CCCN(c3cnc(C(N)=O)c(Nc4ccc(C5CCC6(CC5)CCN(CC5Cc7ccc8c(C9CCC(=O)NC9=O)noc8c7C5)CC6)cc4)n3)C2)C1=O` (stereo partly drawn) [Compound 50], which IC50 (EGFR kinase) is on record?
The IC50 was 69 nM.

What about the Dmax (BTK) of the same molecule?
Its Dmax is greater than 90%.

And the IC50 (BTK(WT) kinase)?
The IC50 was 0.42 nM.

What about the IC50 (BTK(C481S) kinase) of the same molecule?
The IC50 was 0.81 nM.

What about the IC50 (TMD8-BTK(C481S) cells) of the same molecule?
The IC50 was 4 nM.

What about the “Mouse liver microsome Residuals at 60 min” value [1] of the same molecule?
The value was 63.1%.

With `CN1CCN([C@@H]2CCCN(c3cnc(C(N)=O)c(Nc4ccc(C5CCC6(CC5)CC(N5CCc7ccc8c(C9CCC(=O)NC9=O)noc8c7CC5)C6)cc4)n3)C2)C1=O` (stereo partly drawn) [Compound 59] as the molecule, how does the IC50 (EGFR kinase) read?
The IC50 was 279 nM.

And the Dmax (BTK)?
The Dmax was greater than 90%.

What about the IC50 (BTK(WT) kinase) of the same molecule?
Its IC50 is 5.4 nM.

And the IC50 (BTK(C481S) kinase)?
Its IC50 is 9.1 nM.

What about the IC50 (TMD8-BTK(C481S) cells) of the same molecule?
The IC50 was 12 nM.

What about the “Mouse liver microsome Residuals at 60 min” value [1] of the same molecule?
Its value is 47.0%.
